The text below walks through data of patent US20250368614A1, “COMPOUNDS AND METHODS FOR YAP/TEAD MODULATION AND INDICATIONS THEREFOR” (OPNA BIO SA, priority 2023, published 2025).

The assay concerns TEAD-dependent transcription (12XGTIIC TEAD response element luciferase reporter) in MSTO-211H cells. In words: TEAD-dependent transcription cell-based luciferase reporter assay in MSTO-211H+12XGTIIC cells. The following applies: Homo sapiens; MSTO-211H+12XGTIIC reporter cells, 24 hours compound incubation, luminescence normalized to cell viability signal, geometric mean; read-out: MSTO-211H GMean IC50 (uM) Cell Assay Reporter Cell Variant: TEAD. The text has this:
Determine Inhibitor Activity Against TEAD-Dependent Transcription in a Cell-Based Reporter Assay
The human mesothelioma cell line MSTO-211H was stably transfected with a pGL4.21 plasmid containing a synthetic promoter with 12 copies of the GTIIC TEAD response element that drives the expression of a luciferase reporter gene^1 using Lipofectamine transfection reagent (Thermo Fisher). Transfected cells were selected using puromycin and single cell clones expressing this construct (referred to as MSTO-211H+12XGTIIC) were generated by limiting dilution. MSTO-211H cells was characterized by genetic alterations in key components of the Hippo pathway^2, resulting in up-regulation of YAP/TEAD-mediated transcription. […] To evaluate TEAD inhibitors, the MSTO-211H+12XGTIIC cell line was seeded in a 96-well plate in 50 μL of culture media at 1×10^4 cells per well and incubated at 37° C. overnight. Serial dilutions of compounds (in total volume of 50 μL of culture media) were added to the cells and incubated at 37° C. for 24 hours. Each plate included cells treated with DMSO as high controls and cells treated with 20 μM of the reference compound K-975 (a known TEAD inhibitor^3) as low controls. Cell viability was assayed by the addition of 25 μL of CellTiter-Fluor reagent (Promega) followed by a 30-minute incubation at 37° C. and quantification of the fluorescence signal (Ex400/Em505). Subsequently, luciferase expression was assayed by the addition of 25 μL of ONE-Glo reagent (Promega) followed by a 10-minute incubation at room temperature and quantification of the luminescence signal. The luminescence signal was normalized to the fluorescence signal to correct for any loss in cell viability over the 24-hour compound incubation period. The percentage of inhibition of normalized luminescence signal, indicative of compound-mediated inhibition of TEAD-dependent transcription, at individual compound concentrations relative to high and low controls was calculated. The data were analyzed by using nonlinear regression to generate IC50 values for individual compounds.
(In general: Reporter assays use an easily measured gene product as a stand-in for the process of interest.)

For the compound `O=C(Nc1ccccn1)N1CCC(C(=O)N2CCc3c(cccc3Nc3ccc(C(F)(F)F)nc3)C2)C1` (stereo not drawn) [Compound O-0097, N-(pyridin-2-yl)-3-(5-((6-(trifluoromethyl)pyridin-3-yl)amino)-1,2,3,4-tetrahydroisoquinoline-2-carbonyl)pyrrolidine-1-carboxamide], the IC50 lay in the range of 0.001 to 10 µM.

With `O=C(c1ccnc(Cl)n1)N1CCc2c(cccc2Nc2ccc(C(F)(F)F)cc2)C1` [Compound O-0041, (2-chloropyrimidin-4-yl)(5-((4-(trifluoromethyl)phenyl)amino)-3,4-dihydroisoquinolin-2(1H)-yl)methanone], the IC50 is 0.001 to 10 µM.

As to `O=C(NCc1ccccn1)N1CCc2c(cccc2Nc2ccc(C(F)(F)F)cc2)C1` [Compound O-0194, N-(pyridin-2-ylmethyl)-5-((4-(trifluoromethyl)phenyl)amino)-3,4-dihydroisoquinoline-2(1H)-carboxamide], the IC50 was 0.001 to 10 µM.

On to `CN(c1ccc(C(F)(F)F)cc1)c1cccc2c1CCN(C(=O)c1ccc(N)cc1)C2` [Compound O-0015, (4-aminophenyl)(5-(methyl(4-(trifluoromethyl)phenyl)amino)-3,4-dihydroisoquinolin-2(1H)-yl)methanone], for which the IC50 is 0.001 to 10 µM.

For `NC(=O)N1CCC(C(=O)N2CCc3c(cccc3Nc3ccc(C(F)(F)F)cc3)C2)C1` (stereo not drawn) [Compound O-0057, 3-(5-((4-(trifluoromethyl)phenyl)amino)-1,2,3,4-tetrahydroisoquinoline-2-carbonyl)pyrrolidine-1-carboxamide], the IC50 was in the range of 0.001 to 10 µM.

For `O=C(CCS(=O)(=O)C(F)(F)F)N1CCc2c(ncnc2Nc2ccc(C(F)(F)F)cc2)C1` [Compound O-0024, 1-(4-((4-(trifluoromethyl)phenyl)amino)-5,8-dihydropyrido[3,4-d]pyrimidin-7(6H)-yl)-3-((trifluoromethyl)sulfonyl)propan-1-one], the IC50 was 0.001 to 10 µM.

Turning to `CN(c1ccc(C(F)(F)F)nc1)c1cccc2c1CCN(C(=O)CCS(=O)(=O)C(F)(F)F)C2` [Compound O-0023, 1-(5-(methyl(6-(trifluoromethyl)pyridin-3-yl)amino)-3,4-dihydroisoquinolin-2(1H)-yl)-3-((trifluoromethyl)sulfonyl)propan-1-one], the IC50 fell in the range of 0.001 to 10 µM.

Consider `O=C(NCCC(=O)N1CCc2c(cccc2Nc2ccc(C(F)(F)F)c(F)c2)C1)NC1CC1` [Compound O-0188, 1-cyclopropyl-3-(3-(5-((3-fluoro-4-(trifluoromethyl)phenyl)amino)-3,4-dihydroisoquinolin-2(1H)-yl)-3-oxopropyl)urea], for which the IC50 fell in the range of 0.001 to 10 µM.

Consider `CN(c1ccc(C(F)(F)F)cc1)c1cccc2c1CCN(C(=O)c1cccc3[nH]ccc13)C2` [Compound O-0012, (1H-indol-4-yl)(5-(methyl(4-(trifluoromethyl)phenyl)amino)-3,4-dihydroisoquinolin-2(1H)-yl)methanone], for which the IC50 was in the range of 0.001 to 10 µM.

On to `O=C1NC(=O)C(CC(=O)N2CCc3c(cccc3Nc3ccc(C(F)(F)F)cc3F)C2)N1` (stereo not drawn) [Compound O-0196, 5-(2-(5-((2-fluoro-4-(trifluoromethyl)phenyl)amino)-3,4-dihydroisoquinolin-2(1H)-yl)-2-oxoethyl)imidazolidine-2,4-dione], for which the IC50 lay in the range of 0.001 to 10 µM.

As to `CN(c1ccc(C(F)(F)F)cc1)c1cccc2c1CCN(C(=O)c1cccc(N)n1)C2` [Compound O-0014, (6-aminopyridin-2-yl)(5-(methyl(4-(trifluoromethyl)phenyl)amino)-3,4-dihydroisoquinolin-2(1H)-yl)methanone], the concentration for half-maximal inhibition (IC50) fell in the range of 0.001 to 10 µM.

For the compound `CS(=O)(=O)c1cccc(C(=O)N2CCc3c(cccc3Nc3ccc(C(F)(F)F)cc3)C2)c1` [Compound O-0202, (3-(methylsulfonyl)phenyl)(5-((4-(trifluoromethyl)phenyl)amino)-3,4-dihydroisoquinolin-2(1H)-yl)methanone], the IC50 is 0.001 to 10 µM.

What is called IC50 is the midpoint of a concentration-inhibition curve.
